What follows are molecules tested on PANK2 silenced human neuroblastoma IMR32 cells (PANK2−/−) (assay: Coenzyme A assay in PANK2 silenced cells (LC-MS quantification of free CoA)). Conditions: compound added twice (24 h + 24 h), relative to 0.1% DMSO controls.
Type: cell-based
Protocol: A human neuroblastoma IMR32 cell line (ATCC) with stably PANK2 silencing was obtained by lentiviral-delivered small hairpin RNA and cultured in MEM (Invitrogen) supplemented with 10% fetal bovine serum, 2 mM glutamine, 1% penicillin-streptomycin, 1 mM sodium pyruvate, 1 mM non essential amino acids and 1.5 g/l sodium bicarbonate.
For lentiviral shRNA expression, Human Emryonic Kidney HEK-293T cells (ATCC) were transfected with the appropriate pGFP-Lenti-shRNA constructs and packaging plasmids according to manufacturer's protocol (Origene Technologies, Inc.). Four different gene-specific shRNA expression vectors designed against multiple splice variants of PANK2 (Gene ID 80025) were used for transfection. A non-silencing shRNA construct (scrambled shRNA) and an empty vector expressing GFP alone were used as negative controls. The GFP tag subcloned into the lentiviral vectors was used to monitor the transfection efficiency.
IMR32 cells were plated on 150 cm dishes 48 h before transduction with lentiviral particles.
Three days after transduction medium was removed and replaced with fresh medium containing […] puromycin. Medium was replaced every 48 h. Levels of PANK2 expression on selected clones was assessed by Western Blot analysis.
To quantify CoA, PANK2^−/− IMR32 cells were plated on 12-well culture plates (Corning) at a density of 0.2×10^6 cells per well. After 72 h, compounds were freshly dissolved in DMSO and added to the culture medium to yield a final solvent concentration of 0.1% (v/v). Controls with medium containing 0.1% DMSO without test compounds were also included in each plate. Compound treated cells were incubated for 24 h at 37° C. Treatment was repeated after 24 h with newly dissolved compound and cells were further incubated at 37° C. for additional 24 h. Before LC-MS analysis of CoA levels, cells were harvested, counted, and collected in a 15 ml falcon tube and centrifuged at 200×g for 5 min at 4° C. Supernatant was removed and cell pellet was washed in 10 ml of ice-cold PBS. To further confirm that the numbers of cells in each sample were equivalent, an equal fraction of pellet was collected from each sample and subjected to protein determination analysis. After centrifugation and supernatant removal, the cell pellet was rapidly frozen in Liquid Nitrogen and stored at −80° C. until analysis.
Intracellular CoA levels were calculated considering an intracellular volume of 1 million cells=2 μl.
The 1×10^6 cellular pellet was extracted with 120 μl of aqueous 20% TFA. This solution was stirred for 2 min, sonicated in ultrasonic bath for 2 min, then stirred again for 1 min, and centrifuged for 15 min at 14000 g and at 4° C.
100 μL samples of supernatant were dried under N2 at 20° C. in the dark.
Samples were re-dissolved in 100 μl of 10 mM NH4^+ AcO^− buffer pH 5.1+IS (Dextrorphan 50 ng/ml), stirred for 2 min, sonicated in ultrasonic bath for 1 min, then stirred again for 1 min, and injected into LC-MS.
LC-MS/MS was performed using an Agilent HPLC (1100 Series, USA). The LC system was interfaced with an API-4000 Q-Trap triple quadrupole mass spectrometer (AB Sciex, Toronto, Canada) equipped with a TurbolonSpray ionization source operating in positive ion mode. Analyst™ software version 1.6 (AB Sciex, Toronto, Canada) was used for data acquisition and processing. CoA was separated using a Luna C18 column (2.0×50 mm; 5 μm particle size), column at 25° C. and flow rate of 0.2 ml/min. Injection volume was 15 μl. The mobile phases consisted of water containing 10 mM ammonium acetate pH 7 (mobile phase A) and MeCN-2-propanol 9:1 (mobile phase B). Elution was performed using a gradient starting at 2% B, holding at 2% B until 0.1 min, increasing to 98% B at 3.2 min, holding at 98% B until 4.5 min, returning to 2% B at 4.6 min and holding at 2% B until 7.5 min. Precursor ions and MRM transitions used were: CoA m/z 768.1→261.6 and 768.1→136.1. […]
With COC(=O)CCNC(=O)[C@@H]1O[P@@](=O)(OCOC(=O)c2sncc2C)OCC1(C)C [2-176, (((2S,4R)-4-((3-methoxy-3-oxopropyl)carbamoyl)-5,5-dimethyl-2-oxido-1,3,2-dioxaphosphinan-2-yl)oxy)methyl 4-methylisothiazole-5-carboxylate] the “PANK2−/− CoA (Fold Increase): fold increase in Coenzyme A (CoA) levels relative to controls” value was 53.24 Fold Increase.
COC(=O)CCNC(=O)[C@@H]1OP(=O)(OCOC(=O)c2cc(C(C)(C)C)nn2C)OCC1(C)C (stereo partly drawn) [2-144, (((4R)-4-((3-methoxy-3-oxopropyl)carbamoyl)-5,5-dimethyl-2-oxido-1,3,2-dioxaphosphinan-2-yl)oxy)methyl 3-(tert-butyl)-1-methyl-1H-pyrazole-5-carboxylate] was tested, and the “PANK2−/− CoA (Fold Increase): fold increase in Coenzyme A (CoA) levels relative to controls” value was 77.8 Fold Increase.
For COC(=O)CCNC(=O)[C@@H]1O[P@](=O)(Oc2ccc(F)cc2)OCC1(C)C [2-179, methyl 3-((2R,4R)-2-(4-fluorophenoxy)-5,5-dimethyl-2-oxido-1,3,2-dioxaphosphinane-4-carboxamido)propanoate], the “PANK2−/− CoA (Fold Increase): fold increase in Coenzyme A (CoA) levels relative to controls” value was 87.22 Fold Increase.
COC(=O)CCNC(=O)[C@@H]1OP(=O)(N2CCN(C(C)=O)CC2)OCC1(C)C (stereo partly drawn) [compound 139, methyl 3-((4R)-2-(4-acetylpiperazin-1-yl)-5,5-dimethyl-2-oxido-1,3,2-dioxaphosphinane-4-carboxamido)propanoate] was tested, and the “PANK2−/− CoA (Fold Increase): fold increase in Coenzyme A (CoA) levels relative to controls” value was 2.72 Fold Increase.
COC(=O)CCNC(=O)[C@@H]1O[P@@](=O)(OCOC(=O)c2cc(C(C)(C)C)nn2C)OCC1(C)C [2-169, (((2S,4R)-4-((3-methoxy-3-oxopropyl)carbamoyl)-5,5-dimethyl-2-oxido-1,3,2-dioxaphosphinan-2-yl)oxy)methyl 3-(tert-butyl)-1-methyl-1H-pyrazole-5-carboxylate] was tested, and the “PANK2−/− CoA (Fold Increase): fold increase in Coenzyme A (CoA) levels relative to controls” value was 20.26 Fold Increase.
For COC(=O)CCNC(=O)[C@@H]1O[P@](=O)(N2CCOCC2)OCC1(C)C [compound 135, methyl 3-((2S,4R)-5,5-dimethyl-2-morpholino-2-oxido-1,3,2-dioxaphosphinane-4-carboxamido)propanoate], the “PANK2−/− CoA (Fold Increase): fold increase in Coenzyme A (CoA) levels relative to controls” value was 1.3 Fold Increase.
For COC(=O)CCNC(=O)[C@@H]1O[P@](=O)(OCC(F)(F)F)OCC1(C)C [2-123, methyl 3-((2S,4R)-5,5-dimethyl-2-oxido-2-(2,2,2-trifluoroethoxy)-1,3,2-dioxaphosphinane-4-carboxamido)propanoate], the “PANK2−/− CoA (Fold Increase): fold increase in Coenzyme A (CoA) levels relative to controls” value was 1.46 Fold Increase.
For COC(=O)CCNC(=O)[C@@H]1O[P@](=O)(N[C@@H](C)C(=O)OC)OCC1(C)C [1-53, methyl 3-((2S,4R)-2-(((S)-1-methoxy-1-oxopropan-2-yl)amino)-5,5-dimethyl-2-oxido-1,3,2-dioxaphosphinane-4-carboxamido)propanoate], the “PANK2−/− CoA (Fold Increase): fold increase in Coenzyme A (CoA) levels relative to controls” value was 2.37 Fold Increase.
COC(=O)CCNC(=O)[C@@H]1OP(=O)(OCOC(=O)N[C@@H](CSC(=O)C(C)(C)C)C(=O)OCC(=O)c2ccccc2)OCC1(C)C (stereo partly drawn) [2-202, 2-oxo-2-phenylethyl N-(((((4R)-4-((3-methoxy-3-oxopropyl)carbamoyl)-5,5-dimethyl-2-oxido-1,3,2-dioxaphosphinan-2-yl)oxy)methoxy)carbonyl)-S-pivaloyl-L-cysteinate] was tested, and the “PANK2−/− CoA (Fold Increase): fold increase in Coenzyme A (CoA) levels relative to controls” value was 2.62 Fold Increase.
In the case of COC(=O)CCNC(=O)[C@@H]1OP(=O)(OCOC(=O)NCCSC(=O)[C@@H](NC(=O)OCc2ccccc2)C(C)C)OCC1(C)C (stereo partly drawn) [2-175, methyl 3-((4R)-2-(((S)-9-isopropyl-3,8,11-trioxo-13-phenyl-2,12-dioxa-7-thia-4,10-diazatridecyl)oxy)-5,5-dimethyl-2-oxido-1,3,2-dioxaphosphinane-4-carboxamido)propanoate], the “PANK2−/− CoA (Fold Increase): fold increase in Coenzyme A (CoA) levels relative to controls” value is reported as 9.31 Fold Increase.
With COC(=O)CCNC(=O)[C@@H]1OP(=O)(OCOC(=O)c2ccnn2C)OCC1(C)C (stereo partly drawn) [2-142, (((4R)-4-((3-methoxy-3-oxopropyl)carbamoyl)-5,5-dimethyl-2-oxido-1,3,2-dioxaphosphinan-2-yl)oxy)methyl 1-methyl-1H-pyrazole-5-carboxylate] the “PANK2−/− CoA (Fold Increase): fold increase in Coenzyme A (CoA) levels relative to controls” value was 58.1 Fold Increase.
With COC(=O)CCNC(=O)[C@@H]1O[P@@](=O)(OCOC(=O)N[C@@H](CSC(=O)C(C)(C)C)C(=O)O)OCC1(C)C [2-200, N-(((((2S,4R)-4-((3-methoxy-3-oxopropyl)carbamoyl)-5,5-dimethyl-2-oxido-1,3,2-dioxaphosphinan-2-yl)oxy)methoxy)carbonyl)-S-pivaloyl-L-cysteine] the “PANK2−/− CoA (Fold Increase): fold increase in Coenzyme A (CoA) levels relative to controls” value was 1.84 Fold Increase.
For COC(=O)CCNC(=O)[C@@H]1O[P@@](=O)(OCOC(=O)c2scnc2C)OCC1(C)C (single isomer, unassigned) [2-149], the “PANK2−/− CoA (Fold Increase): fold increase in Coenzyme A (CoA) levels relative to controls” value was 24.48 Fold Increase.
For COC(=O)CCNC(=O)[C@@H]1OP(=O)(NCCc2ccccc2)OCC1(C)C (stereo partly drawn) [compound 112, methyl 3-((4R)-5,5-dimethyl-2-oxido-2-(phenethylamino)-1,3,2-dioxaphosphinane-4-carboxamido)propanoate], the “PANK2−/− CoA (Fold Increase): fold increase in Coenzyme A (CoA) levels relative to controls” value was 1.42 Fold Increase.
COC(=O)CCNC(=O)[C@@H]1O[P@](=O)(Oc2ccc(C(F)(F)F)cc2)OCC1(C)C [2-197, methyl 3-((2R,4R)-5,5-dimethyl-2-oxido-2-(4-(trifluoromethyl)phenoxy)-1,3,2-dioxaphosphinane-4-carboxamido)propanoate] was tested, and the “PANK2−/− CoA (Fold Increase): fold increase in Coenzyme A (CoA) levels relative to controls” value was 101.95 Fold Increase.
In the case of COC(=O)CCNC(=O)[C@@H]1O[P@@](=O)(OCCNC(C)=O)OCC1(C)C [2-115, methyl 3-((2R,4R)-2-(2-acetamidoethoxy)-5,5-dimethyl-2-oxido-1,3,2-dioxaphosphinane-4-carboxamido)propanoate], the “PANK2−/− CoA (Fold Increase): fold increase in Coenzyme A (CoA) levels relative to controls” value is reported as 1.6 Fold Increase.
For COC(=O)CCNC(=O)[C@@H]1O[P@@](=O)(OCOC(=O)c2cnco2)OCC1(C)C (single isomer, unassigned) [2-151], the “PANK2−/− CoA (Fold Increase): fold increase in Coenzyme A (CoA) levels relative to controls” value was 17.56 Fold Increase.
In the case of CO[13C](=O)[13CH2][13CH2][15NH]C(=O)[C@@H]1OP(=O)(Oc2ccccc2)OCC1(C)C (stereo partly drawn) [2-109, methyl 3-((4R)-5,5-dimethyl-2-oxido-2-phenoxy-1,3,2-dioxaphosphinane-4-carboxamido-15N)propanoate-1,2,3-13C3], the “PANK2−/− CoA (Fold Increase): fold increase in Coenzyme A (CoA) levels relative to controls” value is reported as 2.04 Fold Increase.
For COC(=O)CCNC(=O)[C@@H]1OP(=O)(OCOC(=O)c2ocnc2C)OCC1(C)C (stereo partly drawn) [2-147, (((4R)-4-((3-methoxy-3-oxopropyl)carbamoyl)-5,5-dimethyl-2-oxido-1,3,2-dioxaphosphinan-2-yl)oxy)methyl 4-methyloxazole-5-carboxylate], the “PANK2−/− CoA (Fold Increase): fold increase in Coenzyme A (CoA) levels relative to controls” value was 39.19 Fold Increase.
COC(=O)CCNC(=O)[C@@H]1OP(=O)(OCOC(=O)[C@@H]2COC(=O)N2C(=O)OC(C)(C)C)OCC1(C)C (stereo partly drawn) [2-189, 3-(tert-butyl) 4-((((4R)-4-((3-methoxy-3-oxopropyl)carbamoyl)-5,5-dimethyl-2-oxido-1,3,2-dioxaphosphinan-2-yl)oxy)methyl) (4S)-2-oxooxazolidine-3,4-dicarboxylate] was tested, and the “PANK2−/− CoA (Fold Increase): fold increase in Coenzyme A (CoA) levels relative to controls” value was 3.86 Fold Increase.
